Assay results: PMC8139947, “Novel late-stage radiosynthesis of 5-[18F]-trifluoromethyl-1,2,4-oxadiazole (TFMO) containing molecules for PET imaging” (Scientific Reports, 2021)

Tests used:
[1] = Aqueous solubility / formulation for in vivo studies; type: physicochemical; details: high concentration of DMSO (~ 50%) needed to solubilise the tracer
[2] = Partition coefficient (LogD), octanol/PBS shake flask method; type: physicochemical; details: octanol / phosphate buffer pH 7.4, shake flask, radioactivity counted by gamma-counter; read-out: LogD (observed)
Source text: We determined the partition coefficients (LogD) using the octanol/PBS shake flask method.

aqueous solubility [1]: poor | logD [2]: > 6
SMILES: CC(C)(CNC(=O)c1cccc(-c2noc(C(F)(F)[18F])n2)c1)c1coc(-c2ccccc2)n1 [[^18F]TMP195, N-(2-methyl-2-(2-phenyloxazol-4-yl)propyl)-3-(5-([18F]trifluoromethyl)-1,2,4-oxadiazol-3-yl)benzamide]
